Consider 20 compounds from patent publication US9796700B2 (Celgene CAR LLC, priority 2013, dated 2017).

In the experiment the target is Erk1 (Homo sapiens (Human), UniProt P27361). Description: Protein Mass Modification Assay (intact protein MALDI). It is filed as binding. The essentials:
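Percent covalent modification comes from the intact-protein MALDI centroid mass shift, treated versus control, divided by compound MW. Before analysis, human Erk1 was exposed to compound at 10-fold excess over protein for 60 min at room temperature.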

Erk1, sequence (P27361 whole entry, looked up): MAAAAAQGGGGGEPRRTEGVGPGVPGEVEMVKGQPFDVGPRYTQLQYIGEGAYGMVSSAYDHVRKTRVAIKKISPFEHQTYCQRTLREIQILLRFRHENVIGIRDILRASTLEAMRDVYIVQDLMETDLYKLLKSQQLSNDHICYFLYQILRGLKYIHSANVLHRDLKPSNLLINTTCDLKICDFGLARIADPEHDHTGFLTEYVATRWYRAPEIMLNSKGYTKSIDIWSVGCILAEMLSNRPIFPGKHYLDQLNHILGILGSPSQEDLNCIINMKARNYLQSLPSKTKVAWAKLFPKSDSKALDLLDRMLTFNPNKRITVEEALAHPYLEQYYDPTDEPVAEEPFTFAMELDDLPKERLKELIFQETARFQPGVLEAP

Consider `C=CC(=O)Nc1cc(OC)ccc1Nc1nc(Nc2ccc(N(CC)C(C)=O)cc2C#N)ncc1Cl` [Compound I-164, N-(2-((5-chloro-2-((2-cyano-4-(N-ethylacetamido)phenyl)amino)pyrimidin-4-yl)amino)-5-methoxyphenyl)acrylamide], for which the “ERK1 Mass Mod (%)” value was “E (provided a mass modification of ≧70%)”. As to `O=C(CCl)Nc1ccccc1Nc1nc(N[C@H]2CCCN(C(=O)CCl)C2)ncc1C(F)(F)F` [Compound I-31, (S)-2-Chloro-N-(2-((2-((1-(2-chloroacetyl)piperidin-3-yl)amino)-5-(trifluoromethyl)pyrimidin-4-yl)amino)phenyl)acetamide], the “ERK1 Mass Mod (%)” value is “G (proived a mass modification ≦30%)”. As to `C=CC(=O)Nc1ccccc1Nc1nc(Nc2cc(C(=O)NC)c(F)cc2C)ncc1C(F)(F)F` [Compound I-80, 5-((4-((2-Acrylamidophenyl)amino)-5-(trifluoromethyl)pyrimidin-2-yl)amino)-2-fluoro-N,4-dimethylbenzamide], the “ERK1 Mass Mod (%)” value is “E (provided a mass modification of ≧70%)”.

On to `C=CC(=O)Nc1ccccc1Nc1nc(Nc2ccc(N(CCCNC(=O)OC(C)(C)C)C(C)=O)cc2C(F)(F)F)ncc1Cl` [Compound I-169, tert-butyl (3-(N-(4-((4-((2-acrylamidophenyl)amino)-5-chloropyrimidin-2-yl)amino)-3-(trifluoromethyl)phenyl)acetamido)propyl)carbamate], for which the “ERK1 Mass Mod (%)” value is given as “E (provided a mass modification of ≧70%)”.

`C=CC(=O)N[C@@H]1CCCC[C@H]1Oc1nc(Nc2cc(C(N)=O)ccc2C)ncc1C(N)=O` (racemic) [Compound I-268, Rac-trans-4-((2-acrylamidocyclohexyl)oxy)-2-((5-carbamoyl-2-methylphenyl)amino)pyrimidine-5-carboxamide]: the “ERK1 Mass Mod (%)” value is recorded as “G (proived a mass modification ≦30%)”. The same measure for `C=CC(=O)Nc1cc(C)ccc1Nc1nc(Nc2cc(OCCOC)ncc2C)ncc1C(F)(F)F` [Compound I-359, N-(2-((2-((2-(2-methoxyethoxy)-5-methylpyridin-4-yl)amino)-5-(trifluoromethyl)pyrimidin-4-yl)amino)-5-methylphenyl)acrylamide]: “E (provided a mass modification of ≧70%)”; for `C=CC(=O)N[C@H]1CCCC[C@@H]1Nc1nc(N[C@H]2CCCN(C(=O)CO)C2)ncc1Cl` (racemic) [Compound I-141, Rac-N-(2-((5-chloro-2-(((R)-1-(2-hydroxyacetyl)piperidin-3-yl)amino)pyrimidin-4-yl)amino)-trans-cyclohexyl)acrylamide]: “E (provided a mass modification of ≧70%)”; for `C=CC(=O)Nc1cc(C)ccc1Nc1nc(Nc2cc(OCC)ncc2C)ncc1C(F)(F)F` [Compound I-358, N-(2-((2-((2-ethoxy-5-methylpyridin-4-yl)amino)-5-(trifluoromethyl)pyrimidin-4-yl)amino)-5-methylphenyl)acrylamide]: “E (provided a mass modification of ≧70%)”.

For the compound `C=CC(=O)Nc1ccccc1Nc1nc(Nc2cc(C(=O)NOCCO)ccc2OC)ncc1Cl` [Compound I-194, 3-((4-((2-acrylamidophenyl)amino)-5-chloropyrimidin-2-yl)amino)-N-(2-hydroxyethoxy)-4-methoxybenzamide], the “ERK1 Mass Mod (%)” value was “E (provided a mass modification of ≧70%)”. On to `C=CC(=O)Nc1cc(OC)ccc1Nc1nc(Nc2ccc(N3CCC[C@@H]3CO)cc2C#N)ncc1Cl` [Compound I-181, (R)—N-(2-((5-chloro-2-((2-cyano-4-(2-(hydroxymethyl)pyrrolidin-1-yl)phenyl)amino)pyrimidin-4-yl)amino)-5-methoxyphenyl)acrylamide], for which the “ERK1 Mass Mod (%)” value is given as “E (provided a mass modification of ≧70%)”. For `C=CC(=O)Nc1cc(OC)ccc1Nc1nc(Nc2ccc(N3CCC[C@H]3CO)cc2C#N)ncc1Cl` [Compound I-163, (S)—N-(2-((5-chloro-2-((2-cyano-4-(2-(hydroxymethyl)pyrrolidin-1-yl)phenyl)amino)pyrimidin-4-yl)amino)-5-methoxyphenyl)acrylamide] the value was “E (provided a mass modification of ≧70%)”; for `C=CC(=O)Nc1ccccc1Nc1nc(N[C@H]2CCN(C(C)=O)C2)ncc1C(F)(F)F` [Compound I-56, (S)—N-(2-((2-((1-Acetylpyrrolidin-3-yl)amino)-5-(trifluoromethyl)pyrimidin-4-yl)amino)phenyl)acrylamide], “F (provided a mass modification of 31-69%)”. For the compound `C=CC(=O)Nc1ccccc1Nc1nc(Nc2ccc3c(c2OC)CCCC(=O)N3CCN2CCOCC2)ncc1Cl` [Compound I-145, N-(2-((5-chloro-2-((6-methoxy-1-(2-morpholinoethyl)-2-oxo-2,3,4,5-tetrahydro-1H-benzo[b]azepin-7-yl)amino)pyrimidin-4-yl)amino)phenyl)acrylamide], the “ERK1 Mass Mod (%)” value is recorded as “E (provided a mass modification of ≧70%)”. In the case of `C=CC(=O)Nc1ccccc1Nc1nc(N[C@H]2CCCN(C(=O)C(C)(C)O)C2)ncc1Cl` [Compound I-135, (S)—N-(2-((5-chloro-2-((1-(2-hydroxy-2-methylpropanoyl)piperidin-3-yl)amino)pyrimidin-4-yl)amino)phenyl)acrylamide], the “ERK1 Mass Mod (%)” value was “E (provided a mass modification of ≧70%)”. `C=CC(=O)N[C@@H]1CCCC[C@H]1Nc1nc(Nc2cc(C(=O)NOC)ccc2C)ncc1Cl` (racemic) [Compound I-188, Rac-trans-3-((4-((2-acrylamidocyclohexyl)amino)-5-chloropyrimidin-2-yl)amino)-N-methoxy-4-methylbenzamide]: the “ERK1 Mass Mod (%)” value was “F (provided a mass modification of 31-69%)”. With `C=CC(=O)Nc1ccccc1Nc1nc(Nc2ccnnc2)ncc1C(F)(F)F` [Compound I-293, N-(2-((2-(Pyridazin-4-ylamino)-5-(trifluoromethyl)pyrimidin-4-yl)amino)phenyl) acrylamide], the “ERK1 Mass Mod (%)” value is on record as “E (provided a mass modification of ≧70%)”. For `C=CC(=O)Nc1cc(OC)ccc1Nc1nc(Nc2ccc(N3CCC[C@H]3C(N)=O)cc2C#N)ncc1Cl` [Compound I-178, (S)-1-(4-((4-((2-acrylamido-4-methoxyphenyl)amino)-5-chloropyrimidin-2-yl)amino)-3-cyanophenyl)pyrrolidine-2-carboxamide] the value was “E (provided a mass modification of ≧70%)”. The same measure for `C=CC(=O)Nc1ccccc1Nc1nc(N[C@@H]2CCN(C(C)=O)C2)ncc1C(F)(F)F` [Compound I-60, (R)—N-(2-((2-((1-Acetylpyrrolidin-3-yl)amino)-5-(trifluoromethyl)pyrimidin-4-yl)amino)phenyl)acrylamide]: “E (provided a mass modification of ≧70%)”. For `C=CC(=O)Nc1ccccc1Nc1nc(Nc2ccc3c(c2OC)CCCC(=O)N3CCCNC(=O)OC(C)(C)C)ncc1Cl` [Compound I-147, tert-butyl (3-(7-((4-((2-acrylamidophenyl)amino)-5-chloropyrimidin-2-yl)amino)-6-methoxy-2-oxo-2,3,4,5-tetrahydro-1H-benzo[b]azepin-1-yl)propyl)carbamate] the value was “E (provided a mass modification of ≧70%)”; for `C=CC(=O)Nc1ccccc1Nc1nc(NC2CCN(S(C)(=O)=O)CC2)ncc1Cl` [Compound I-117, N-(2-((5-chloro-2-((1-(methylsulfonyl)piperidin-4-yl)amino)pyrimidin-4-yl)amino)phenyl)acrylamide], “E (provided a mass modification of ≧70%)”.
